{
  "source": "ChEMBL document CHEMBL1201862",
  "about": "“PubChem BioAssay data set” (2004)",
  "key": {"[1]": {"target": "Dual specificity protein phosphatase 3 (Homo sapiens, UniProt P51452)", "sequence (P51452 whole entry)": "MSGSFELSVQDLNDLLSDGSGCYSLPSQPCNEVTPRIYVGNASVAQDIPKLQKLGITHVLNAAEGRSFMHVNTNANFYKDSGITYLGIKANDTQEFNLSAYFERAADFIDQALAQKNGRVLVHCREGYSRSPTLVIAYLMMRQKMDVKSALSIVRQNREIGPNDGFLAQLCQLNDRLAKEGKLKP", "assay": "inhibition constants for human DUSP3 – biochemical, colorimetric, SAR follow-up (AID 2004)"}, "[2]": {"assay": "Trypanosoma cruzi growth suppression in host cells – NIH3T3 host cells, beta-gal luminescence, confirmation (AID 2044);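 also: intracellular parasites grown in NIH/3T3 mouse fibroblasts as host cells; luminescent beta-galactosidase reporter signal from transgenic T. cruzi replicating inside host cells; inhibitors lower the luminescence signal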", "type": "functional, cell-based"}, "[3]": {"assay": "NIH3T3 cell viability loss – ATP luminescence, mouse fibroblasts, counter-screen, dose response (AID 2010);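 also: cells exposed to compound for about 90 hours before reading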", "type": "functional, cell-based"}, "Coagulation factor XII": {"target": "Coagulation factor XII (Homo sapiens, UniProt P00748)", "sequence (P00748 20-372 limits assumed)": "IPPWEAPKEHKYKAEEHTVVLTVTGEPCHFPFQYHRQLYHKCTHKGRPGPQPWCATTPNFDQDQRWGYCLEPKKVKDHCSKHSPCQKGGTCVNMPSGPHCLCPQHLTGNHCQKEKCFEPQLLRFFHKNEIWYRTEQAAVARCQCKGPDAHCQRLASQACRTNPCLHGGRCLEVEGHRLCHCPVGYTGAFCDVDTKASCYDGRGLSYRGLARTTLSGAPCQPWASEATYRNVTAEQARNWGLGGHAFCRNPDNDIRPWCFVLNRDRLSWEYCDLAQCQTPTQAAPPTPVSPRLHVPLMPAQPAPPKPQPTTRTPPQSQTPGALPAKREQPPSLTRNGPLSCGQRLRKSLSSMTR", "sequence (P00748 373-615 limits assumed)": "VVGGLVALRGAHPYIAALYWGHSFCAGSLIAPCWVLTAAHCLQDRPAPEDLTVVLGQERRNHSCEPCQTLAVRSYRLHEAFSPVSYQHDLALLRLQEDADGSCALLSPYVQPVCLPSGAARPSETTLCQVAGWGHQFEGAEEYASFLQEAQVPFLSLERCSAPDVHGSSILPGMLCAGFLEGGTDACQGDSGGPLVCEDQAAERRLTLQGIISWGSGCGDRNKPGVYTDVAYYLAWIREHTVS", "type": "functional"}, "[4]": {"target": "DNA dC->dU-editing enzyme APOBEC-3G (Homo sapiens, UniProt Q9HC16)", "sequence (Q9HC16 whole entry)": "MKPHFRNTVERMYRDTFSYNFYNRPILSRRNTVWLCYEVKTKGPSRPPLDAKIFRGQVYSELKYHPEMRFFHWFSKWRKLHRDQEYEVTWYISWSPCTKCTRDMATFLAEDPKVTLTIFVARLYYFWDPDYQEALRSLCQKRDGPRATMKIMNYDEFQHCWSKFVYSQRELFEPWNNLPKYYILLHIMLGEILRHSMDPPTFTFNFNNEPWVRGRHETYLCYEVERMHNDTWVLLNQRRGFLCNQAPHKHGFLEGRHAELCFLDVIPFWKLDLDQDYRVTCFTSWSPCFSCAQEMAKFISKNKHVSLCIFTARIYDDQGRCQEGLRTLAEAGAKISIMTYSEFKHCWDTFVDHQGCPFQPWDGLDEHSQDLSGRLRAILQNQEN", "assay": "Dose Response confirmation of small molecule APOBEC3G DNA Deaminase Inhibitors via a fluorescence-based single-stranded DNA deaminase assay. [Related pubchem assays (depositor defined):AID493012, AID493028]", "type": "functional"}, "[5]": {"target": "Mitochondrial peptide methionine sulfoxide reductase (Bos taurus, UniProt P54149)", "sequence (P54149 whole entry)": "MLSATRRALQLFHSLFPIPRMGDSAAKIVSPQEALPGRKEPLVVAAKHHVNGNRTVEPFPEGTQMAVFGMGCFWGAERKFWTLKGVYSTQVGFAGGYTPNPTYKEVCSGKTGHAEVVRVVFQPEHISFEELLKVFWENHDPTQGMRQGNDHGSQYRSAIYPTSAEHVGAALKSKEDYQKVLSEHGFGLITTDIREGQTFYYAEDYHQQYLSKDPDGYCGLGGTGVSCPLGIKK", "assay": "Absorbance-based biochemical high throughput dose response assay for activators of Methionine sulfoxide reductase A (MsrA).", "type": "functional"}, "[6]": {"target": "DNA dC->dU-editing enzyme APOBEC-3A (Homo sapiens, UniProt P31941)", "sequence (P31941 whole entry)": "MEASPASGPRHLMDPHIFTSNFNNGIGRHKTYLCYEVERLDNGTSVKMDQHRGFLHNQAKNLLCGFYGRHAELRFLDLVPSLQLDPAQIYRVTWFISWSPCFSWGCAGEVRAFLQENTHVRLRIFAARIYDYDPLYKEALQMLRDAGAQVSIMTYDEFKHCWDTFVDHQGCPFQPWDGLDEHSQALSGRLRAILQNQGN", "assay": "A3A deaminase inhibition for selectivity – biochemical, dose response (AID 504722)", "type": "functional"}, "[7]": {"target": "T1, Mannose-6-phosphate isomerase (Homo sapiens, UniProt P34949)", "T1 sequence (P34949 whole entry)": "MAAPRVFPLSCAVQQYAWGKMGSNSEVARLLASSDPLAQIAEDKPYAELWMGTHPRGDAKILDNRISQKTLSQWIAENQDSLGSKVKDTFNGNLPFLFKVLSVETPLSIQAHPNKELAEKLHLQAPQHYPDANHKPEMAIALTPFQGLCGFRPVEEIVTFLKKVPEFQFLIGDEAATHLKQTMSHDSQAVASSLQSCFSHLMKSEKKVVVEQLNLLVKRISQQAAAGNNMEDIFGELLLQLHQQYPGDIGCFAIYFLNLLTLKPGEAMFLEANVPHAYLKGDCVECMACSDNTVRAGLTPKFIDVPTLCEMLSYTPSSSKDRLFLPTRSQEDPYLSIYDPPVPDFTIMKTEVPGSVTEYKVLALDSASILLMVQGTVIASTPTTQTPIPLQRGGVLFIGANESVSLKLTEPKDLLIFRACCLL", "assay": "phosphomannose isomerase inhibition – biochemical, fluorescence intensity, confirmation (AID 1535)"}, "Phosphomannomutase 2": {"target": "T2, Phosphomannomutase 2 (Homo sapiens, UniProt O15305)", "T2 sequence (O15305 whole entry)": "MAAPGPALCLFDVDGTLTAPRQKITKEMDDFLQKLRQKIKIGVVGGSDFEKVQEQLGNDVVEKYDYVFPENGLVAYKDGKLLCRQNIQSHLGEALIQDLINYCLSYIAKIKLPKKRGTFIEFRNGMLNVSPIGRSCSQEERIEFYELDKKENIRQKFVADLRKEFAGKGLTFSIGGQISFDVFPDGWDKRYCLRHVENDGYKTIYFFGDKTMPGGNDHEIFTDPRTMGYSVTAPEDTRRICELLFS", "assay": "Counter screen SAR assay for PMM2 inhibitors via a fluorescence intensity assay. [Related pubchem assays (depositor defined):AID1545, AID1574]"}, "Large T antigen": {"target": "Large T antigen (Simian virus 40, UniProt P03070)", "sequence (P03070 whole entry)": "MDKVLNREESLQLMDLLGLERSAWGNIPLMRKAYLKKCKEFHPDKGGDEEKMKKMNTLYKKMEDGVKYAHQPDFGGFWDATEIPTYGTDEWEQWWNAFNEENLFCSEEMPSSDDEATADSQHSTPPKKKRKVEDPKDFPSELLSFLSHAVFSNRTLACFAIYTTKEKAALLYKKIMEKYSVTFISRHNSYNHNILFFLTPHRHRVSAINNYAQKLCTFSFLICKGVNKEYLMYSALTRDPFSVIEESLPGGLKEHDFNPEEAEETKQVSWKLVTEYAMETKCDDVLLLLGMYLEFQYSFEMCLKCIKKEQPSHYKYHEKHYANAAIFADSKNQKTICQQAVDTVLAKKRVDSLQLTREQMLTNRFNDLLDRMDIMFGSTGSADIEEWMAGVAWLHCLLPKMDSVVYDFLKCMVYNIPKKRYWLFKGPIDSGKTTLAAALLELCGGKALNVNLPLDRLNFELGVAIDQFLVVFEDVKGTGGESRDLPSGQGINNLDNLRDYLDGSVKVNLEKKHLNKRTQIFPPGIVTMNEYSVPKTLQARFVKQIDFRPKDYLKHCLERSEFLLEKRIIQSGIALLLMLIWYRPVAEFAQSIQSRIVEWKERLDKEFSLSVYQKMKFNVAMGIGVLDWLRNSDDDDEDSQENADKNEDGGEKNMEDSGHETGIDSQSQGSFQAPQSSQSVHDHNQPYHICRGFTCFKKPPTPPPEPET", "type": "functional, Betapolyomavirus macacae"}, "[8]": {"target": "DNA damage-inducible transcript 3 protein (Mus musculus, UniProt P35639)", "sequence (P35639 whole entry)": "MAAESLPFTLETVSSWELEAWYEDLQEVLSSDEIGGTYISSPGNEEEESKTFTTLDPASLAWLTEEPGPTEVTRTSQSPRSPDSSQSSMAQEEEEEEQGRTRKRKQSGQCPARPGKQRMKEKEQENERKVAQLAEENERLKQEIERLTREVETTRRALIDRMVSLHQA", "type": "functional, Cricetulus griseus"}, "[9]": {"target": "E3 ubiquitin-protein ligase Mdm2 (Homo sapiens, UniProt Q00987)", "sequence (Q00987 whole entry)": "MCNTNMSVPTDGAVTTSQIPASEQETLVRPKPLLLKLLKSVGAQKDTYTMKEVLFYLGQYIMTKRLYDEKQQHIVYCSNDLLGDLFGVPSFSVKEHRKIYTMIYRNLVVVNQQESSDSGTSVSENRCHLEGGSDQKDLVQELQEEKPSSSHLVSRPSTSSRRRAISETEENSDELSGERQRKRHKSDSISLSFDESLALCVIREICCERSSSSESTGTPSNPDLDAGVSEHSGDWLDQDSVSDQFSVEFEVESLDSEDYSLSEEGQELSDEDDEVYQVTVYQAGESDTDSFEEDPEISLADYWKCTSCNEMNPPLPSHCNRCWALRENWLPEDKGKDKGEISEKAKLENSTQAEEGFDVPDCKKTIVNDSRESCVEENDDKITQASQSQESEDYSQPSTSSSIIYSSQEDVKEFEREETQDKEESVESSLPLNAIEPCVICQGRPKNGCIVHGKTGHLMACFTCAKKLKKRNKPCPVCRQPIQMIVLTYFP", "assay": "MDM2-luc reporter signal enhancers, multi-concentration potency testing, MDM2 ubiquitin-protein ligase inhibitor program, whole-cell format, luminescence detection, 384-well microplate (AID 1394);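 also: MDM2 E3 inhibitors raise luminescence so EC50 is for signal enhancement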", "type": "functional"}, "[10]": {"assay": "HEK-293T viability loss after treatment – luminescence, T-cell screen hits, cytotoxicity control for TCR NF-kB inhibitor project, dose response (AID 489026);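 also: cells exposed to compound about 14 hours before the viability readout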", "type": "functional, cell-based"}, "INS1": {"test_system": "INS1", "assay": "INS-1E survival protection against cytokine death – cell-based, luminescence, retest, dose response (AID 449756);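 also: cell death triggered by IL-1 beta plus TNF-alpha plus IFN-gamma mixture; protective hits raise ATP signal compared with cytokine alone wells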", "type": "functional", "conditions": "Rattus norvegicus"}},
  "note": "Calls of active or inactive are those of the source.",
  "data": [
    {"compound": "CC1(C)c2ssc(=S)c2-c2ccccc2N1C(=O)CN1CCOCC1", "values": [
      {"measurement": "Ki", "setting": "[1]", "result": "40.5 µM (inactive)"}
    ]},
    {"compound": "COc1ccc(CN2CCN(C(=O)C3CCC(CNS(=O)(=O)c4ccccc4)CC3)CC2)c(OC)c1OC", "note": "(configuration not stated)", "values": [
      {"measurement": "EC50", "setting": "[2]", "result": "0.503 µM (active)"},
      {"measurement": "EC50", "setting": "[3]", "result": "> 60 µM (not active)"},
      {"measurement": "IC50", "setting": "Coagulation factor XII", "result": "> 50 µM (inactive)"}
    ]},
    {"compound": "COc1cc(-c2n[nH]c(=S)[nH]2)cc(OC)c1OC", "values": [
      {"measurement": "IC50", "setting": "[4]", "result": "3.13 µM (active)"},
      {"measurement": "EC50", "setting": "[5]", "result": "> 104 µM (inactive)"},
      {"measurement": "IC50", "setting": "[6]", "result": "> 100 µM (inactive)"},
      {"measurement": "IC50", "setting": "[7]", "result": "38.9 µM (active)"},
      {"measurement": "IC50", "setting": "Phosphomannomutase 2", "result": "> 100 µM (inactive)"},
      {"measurement": "IC50", "setting": "Large T antigen", "result": "8.6 µM (active)"}
    ]},
    {"compound": "Oc1ccc(/C=N/N2CCN(C3c4ccccc4-c4ccccc43)CC2)c(O)c1", "values": [
      {"measurement": "Absolute IC50 (CHOP)", "setting": "[8]", "result": 10, "unit": "µM"}
    ]},
    {"compound": "Sc1nncn1/N=C/c1ccc(Br)cc1", "values": [
      {"measurement": "IC50", "setting": "[4]", "result": "2.72 µM (active)"},
      {"measurement": "IC50", "setting": "[6]", "result": "> 100 µM (inactive)"}
    ]},
    {"compound": "C=C1C(=O)O[C@H]2C[C@@H](C)[C@@H]3C=CC(=O)[C@@]3(C)C[C@H]12", "note": "[AROMATICIN]", "values": [
      {"measurement": "EC50", "setting": "[9]", "result": "0.59 µM (not active)"},
      {"measurement": "IC50", "setting": "[10]", "result": "> 80 µM (inactive)"},
      {"measurement": "AC50", "setting": "INS1", "result": "7.82 µM (active)"},
      {"measurement": "Absolute IC50 (CHOP)", "setting": "[8]", "result": 10, "unit": "µM"}
    ]}
  ]
}
